Test results reported in PMC9011347, “Small-Molecule Inhibitors Targeting Lipolysis in Human Adipocytes” (Journal of the American Chemical Society, 2022).

Molecular target: T1, human ATGL (Homo sapiens, UniProt Q96AD5)
T1 construct: host or cells: Expi293 cells, crude lysate
T1 sequence (Q96AD5 1-504): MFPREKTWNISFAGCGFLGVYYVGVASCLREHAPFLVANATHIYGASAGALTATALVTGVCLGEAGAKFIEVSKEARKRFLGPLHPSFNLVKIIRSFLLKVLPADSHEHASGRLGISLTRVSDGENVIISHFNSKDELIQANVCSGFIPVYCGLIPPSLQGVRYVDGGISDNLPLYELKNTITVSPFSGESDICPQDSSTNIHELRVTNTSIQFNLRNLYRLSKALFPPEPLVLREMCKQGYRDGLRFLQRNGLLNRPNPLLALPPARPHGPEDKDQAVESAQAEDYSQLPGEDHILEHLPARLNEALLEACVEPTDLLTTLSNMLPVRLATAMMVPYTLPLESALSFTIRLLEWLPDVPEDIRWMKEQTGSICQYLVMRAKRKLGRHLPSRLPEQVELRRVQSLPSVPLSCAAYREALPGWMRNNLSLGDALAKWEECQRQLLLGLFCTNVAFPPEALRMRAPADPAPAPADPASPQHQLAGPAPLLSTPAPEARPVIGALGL
Assay: TAG hydrolase assay, lysates of Expi293 cells overexpressing ATGL, purified CGI-58, radiolabeled triolein
Format: biochemical
Conditions: for Ki: NG-497 0.5 μM
Excerpt: We previously developed Atglistatin (Ai), a selective inhibitor of mouse ATGL,[31],[32] which is ineffective against human ATGL.[17] Ai acts as a competitive inhibitor targeting the minimal active domain of ATGL ranging from aa 1–254.[33] This domain is highly conserved in different mammalian species (∼90% identity, Table 1) and comprises the patatin-like domain, eponymous for all members of the patatin-like phospholipase domain-containing (PNPLA) protein family.[34] We first investigated the species selectivity of Ai by performing TAG hydrolase assays[35] with lysates from Expi293 cells expressing ATGL orthologues of different species. The activity of ATGL is strongly stimulated by the co-activator protein comparative gene identification-58 (CGI-58, also known as α/β hydrolase domain containing 5, ABHD5)[36] and can be suppressed by the inhibitory protein G0/G1 switch 2 (G0S2).[37] We therefore determined ATGL activity in the presence and absence of mouse CGI-58, mouse G0S2, and Ai. As shown in Figure 1a–i, all ATGL orthologues were expressed, enzymatically active, stimulated by mouse CGI-58, and inactivated by mouse G0S2. Ai inhibited mouse (Figure 1a), rat (Figure 1b), goat (Figure 1c), dog (Figure 1e), and marmoset ATGL (Figure 1f), but not pig (Figure 1d), rhesus monkey (Figure 1g), or human ATGL (Figure 1h).
To develop an inhibitor for human ATGL, we screened compounds synthesized in the course of the development of Ai.[31] Screenings were performed in the presence of purified CGI-58 using cell lysates of Expi293 cells overexpressing ATGL as a source of enzymatic activity and radiolabeled triolein as substrate as described above (Figure 1). […] In an iterative optimization process, which encompassed the synthesis and testing of >150 compounds (not shown), we varied the nature of the top aryl ring (Figure 2a). Replacement of the top phenyl group with a pyridine moiety (compound 2) led to a significant improvement in inhibitor efficacy (IC50 = 3 μM), which we interpret as a result from a smaller angle between the 1,3-arrangement of the aryl- and the ester-substituents due to the shorter C–N bond length within the pyridine group. […] The introduction of a methoxy residue at this position finally led to compound NG-497 showing an IC50 value of 1 μM.
Experimental details, materials, and methods
Expression of recombinant ATGL constructs and preparation of cell lysates. Expi293 cells were cultivated in Expi293 Expression Medium (GIBCO, Thermo Fisher Scientific, Waltham, USA) at standard conditions (37°C, 5% CO2, 95% humidified atmosphere, 125 rpm). DNA constructs containing ATGL from different species and chimeric ATGL variants in pcDNA3.1(+)myc-His C Vector were obtained from BioCat GmbH (Heidelberg, Germany). Cells were transfected with ExpiFectamine293 Transfection Kit (GIBCO) in Opti-Mem reduced serum medium (GIBCO) according to the manufacturer’s instructions. After 48 h, cells were harvested by centrifugation and washed three times with PBS. Cells were disrupted in buffer A (0.25 M sucrose, 1 mM EDTA, 1 mM dithiothreitol, 20µg/ml leupeptin, 2 µg/ml antipain, 1 µg/ml pepstatin, pH 7.0) by sonication (Virsonic 475, Virtis, Gardiner, USA). Nuclei and debris were removed by centrifugation at 1,000 g and 4°C for 10 min. Protein concentrations were determined using Bio-Rad protein assay (Bio-Rad 785, Bio-Rad Laboratories, Munich, Germany) using BSA as standard.
Expression and purification of mouse CGI-58. CGI-58 was expressed and purified as described 1. In brief, the coding sequence of mouse Cgi-58 was cloned into pHis-Sumo and co-transformed with the plasmid pTf16 expressing the chaperone Tig into E. coli BL21(DE3). Cells were cultured overnight at 37°C and 180 rpm in the presence of 40 µg/ml kanamycin and 34 µg/ml chloramphenicol. Thereafter, cells were transferred into fresh LB medium, grown until OD600 of 0.6, and expression was induced […]
by the addition of 0.5 mM IPTG. […]

SMILES: CCOc1ccc(-c2cc(OC)cc(C(=O)OC(C)C)n2)cc1 [NG-497]
- inhibition of ATGL orthologue (NG-497 50 μM, human ATGL): inactivates
- inactivation of TAG hydrolase activity of ATGL (PNPLA2) (NG-497 100 μM): inactivated
- mechanism of inhibition (Lineweaver–Burk analysis) (increase of apparent Km, Vmax not affected): reversible and competitive inhibition
- IC50 (inhibition of TAG hydrolase activity of human ATGL, Expi293 lysates, purified CGI-58, radiolabeled triolein): 1000 nM
- Ki (nonlinear regression (GraphPad Prism), Figure 2c): 490 ± 20 nM
- Ki (nonlinear regression, varying substrate concentration): 500 nM
